Measured values reported in the supplement of paper PMC7600603.

Legend:
DLD1 NRF2-GOF [1] = conditions: 72 h; CellTiter-Glo viability
Outline: (§1)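 Isogenic DLD1 colorectal cancer cells, either NRF2 wild-type or CRISPR gain-of-function, were grown in DMEM with 10% FBS. They were exposed in 384-well plates to library compounds at 5 concentrations spanning a 10,000-fold range. After 72 h, viability was read by CellTiter-Glo on a Pherastar FS reader and normalised to vehicle wells and 100-μM positive-control wells. EC50 and drug sensitivity score (a normalised area under the curve) came from four-parameter logistic dose-response fits.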

DLD1 NRF2-WT [2] = conditions: 72 h; CellTiter-Glo viability
Outline: as §1

DLD1 NRF2-GOF [3] = assay: TC50 cytotoxicity; higher = less toxic; conditions: 72 h; CellTox Green cytotoxicity
Outline: (§2)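 In 384-well plates, isogenic DLD1 cells with NRF2 wild-type or CRISPR-edited status, grown in DMEM with 10% FBS, received library compounds at 5 concentrations spanning a 10,000-fold range. At 72 h, CellTox Green signals were read on a Pherastar FS reader and scaled between vehicle wells and 100-μM positive-control wells. Cytotoxicity endpoints, TC50 and a drug sensitivity score based on normalised area under the curve, came from logistic dose-response fits.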

DLD1 NRF2-WT [4] = assay: TC50 cytotoxicity; higher = less toxic; conditions: 72 h; CellTox Green cytotoxicity
Outline: as §2

DLD1 NRF2-GOF [5] = assay: drug sensitivity score (DSS) cytotoxicity (DSS score); higher = more toxic; extreme values may be limits of the assay; conditions: 72 h; CellTox Green cytotoxicity
Outline: as §2

DLD1 NRF2-WT [6] = assay: as above; conditions: 72 h; CellTox Green cytotoxicity
Outline: as §2

DLD1 NRF2-GOF [7] = assay: drug sensitivity score (DSS) viability (DSS score); higher = more sensitive; extreme values may be limits of the assay; conditions: 72 h; CellTiter-Glo viability
Outline: as §1

DLD1 NRF2-WT [8] = assay: as above; conditions: 72 h; CellTiter-Glo viability
Outline: as §1

SMILES	EC50 viability (DLD1 NRF2-GOF [1]) [nM]	EC50 viability (DLD1 NRF2-WT [2]) [nM]	TC50 cytotoxicity (DLD1 NRF2-GOF [3]) [nM]	TC50 cytotoxicity (DLD1 NRF2-WT [4]) [nM]	drug sensitivity score (DLD1 NRF2-GOF [5])	drug sensitivity score (DLD1 NRF2-WT [6])	drug sensitivity score (DLD1 NRF2-GOF [7])	drug sensitivity score (DLD1 NRF2-WT [8])
COc1cc(C)c(/C=C/C(C)=C/C=C/C(C)=C/C(=O)O)c(C)c1C [Acitretin]	103	20.2	> 10000	> 10000	0	0	10.3	15.5
O=C(NC1CCNCC1)c1n[nH]cc1NC(=O)c1c(Cl)cccc1Cl [AT7519]	256	169	> 10000	> 10000	0	0	17.1	20
CC[C@]1(O)C[C@H]2CN(CCc3c([nH]c4ccccc34)[C@@](C(=O)OC)(c3cc4c(cc3OC)N(C=O)[C@H]3[C@@](O)(C(=O)OC)[C@H](OC(C)=O)[C@]5(CC)C=CCN6CC[C@]43[C@@H]65)C2)C1 [Vincristine]	4.9	6.3	> 1000	–	5.5	6.8	22.8	22.4
Cc1cc(Nc2cc(N3CCN(C)CC3)nc(Sc3ccc(NC(=O)C4CC4)cc3)n2)n[nH]1 [Tozasertib]	99.2	155	31.1	–	11.6	5.7	15.9	14.2
COc1cc([C@@H]2c3cc4c(cc3[C@@H](O[C@@H]3O[C@@H]5CO[C@@H](C)O[C@H]5[C@H](O)[C@H]3O)[C@H]3COC(=O)[C@H]23)OCO4)cc(OC)c1O [Etoposide]	936	1090	> 10000	–	1.8	2.7	6.3	8.5
Cc1[nH]nc(C(F)(F)F)c1Cc1sc2c(c1C(=O)N1C[C@](C)(O)CO1)c(=O)n(C)c(=O)n2C(C)C [AZD3965]	92.6	> 1000	–	–	–	–	3.5	2.3
CN[C@@H]1C[C@H]2O[C@@](C)([C@@H]1OC)n1c3ccccc3c3c4c(c5c6ccccc6n2c5c31)C(=O)N[C@H]4O [UCN-01]	578	344	–	302	5	10.4	12.6	16.4
CC[C@@H]1C(=O)N(C)c2cnc(Nc3ccc(C(=O)N[C@H]4CC[C@H](N5CCN(CC6CC6)CC5)CC4)cc3OC)nc2N1C(C)C [Volasertib]	4.8	5.1	–	–	6	7	18.8	20.7
Cc1sc2c(c1C)C(c1ccc(Cl)cc1)=N[C@@H](CC(=O)Nc1ccc(OCCOCCOCCOCCNc3cccc4c3C(=O)N(C3CCC(=O)NC3=O)C4=O)cc1)c1nnc(C)n1-2 (some centres not stated) [ARV-825]	36.5	12.9	> 300	–	1.1	4	5	9.1
CN1C(=O)N[C@H](Cc2c[nH]c3c(Cl)cccc23)C1=O [Necrostatin 2]	> 10000	> 10000	–	–	–	–	0	0
Cc1c2oc3c(C)ccc(C(=O)N[C@@H]4C(=O)N[C@H](C(C)C)C(=O)N5CCC[C@H]5C(=O)N(C)CC(=O)N(C)[C@@H](C(C)C)C(=O)O[C@@H]4C)c3nc-2c(C(=O)N[C@@H]2C(=O)N[C@H](C(C)C)C(=O)N3CCC[C@H]3C(=O)N(C)CC(=O)N(C)[C@@H](C(C)C)C(=O)O[C@@H]2C)c(N)c1=O [Dactinomycin]	1.3	6.7	> 1000	–	0	1.4	31.3	24.8
COc1cc(OC)c(/C=C/S(=O)(=O)Cc2ccc(OC)c(NCC(=O)O)c2)c(OC)c1 [Rigosertib]	107	106	190	–	9.4	5.9	19	21
CC[C@]12C=CCN3CC[C@@]4(c5cc([C@@]6(C(=O)OC)C[C@@H]7C[C@@H](C(C)(F)F)CN(Cc8c6[nH]c6ccccc86)C7)c(OC)cc5N(C)[C@H]4[C@@](O)(C(=O)OC)[C@@H]1OC(C)=O)[C@@H]32 [Vinflunine]	162	143	–	> 1000	1	1.3	6.9	7
CO[C@H]1C[C@@H]2CC[C@@H](C)[C@@](O)(O2)C(=O)C(=O)N2CCCC[C@H]2C(=O)O[C@H]([C@H](C)C[C@@H]2CC[C@@H](OC(=O)C(C)(CO)CO)[C@H](OC)C2)CC(=O)[C@H](C)/C=C(\C)[C@@H](O)[C@@H](OC)C(=O)[C@H](C)C[C@H](C)/C=C/C=C/C=C/1C [Temsirolimus]	> 100	> 100	–	–	–	–	1.3	4.1
CNC(=O)c1ccccc1Nc1nc(Nc2ccc3c(c2OC)CCC[C@H](N2CCN(CCO)CC2)C3)ncc1Cl	450	610	–	1210	1.8	3	9.3	9.2
Cc1ccc(C(=O)N(CCCN)[C@@H](c2oc3cc(Cl)ccc3c(=O)c2Cc2ccccc2)C(C)C)cc1	3.1	2.8	> 100	–	1.5	2.8	13.5	12.7
N.N.[Cl][Pt][Cl] [Cisplatin]	30600	27900	–	–	1.2	1.4	4.8	5.2
O=C(CCCCCCC(=O)Nc1ccc([C@H]2O[C@@H](CSc3nc(-c4ccccc4)c(-c4ccccc4)o3)C[C@@H](c3ccc(CO)cc3)O2)cc1)NO [Tubacin]	1710	–	> 10000	> 10000	0	0	3	2.7
CO[C@H]1C(=O)[C@]2(C)[C@@H](OC)C[C@H]3OC[C@@]3(OC(C)=O)[C@H]2[C@H](OC(=O)c2ccccc2)[C@]2(O)C[C@H](OC(=O)[C@H](O)[C@@H](NC(=O)OC(C)(C)C)c3ccccc3)C(C)=C1C2(C)C [Cabazitaxel]	1.6	1.5	> 1000	–	0.3	6.6	25.7	27.1
NCC(=O)Nc1ccc(-n2nc(C(F)(F)F)cc2-c2ccc3c(ccc4ccccc43)c2)cc1	> 25000	–	> 25000	> 25000	0	0	0	0.8

SMILES	EC50 viability (DLD1 NRF2-GOF [1]) [nM]	EC50 viability (DLD1 NRF2-WT [2]) [nM]	TC50 cytotoxicity (DLD1 NRF2-GOF [3]) [nM]	TC50 cytotoxicity (DLD1 NRF2-WT [4]) [nM]	drug sensitivity score (DLD1 NRF2-GOF [5])	drug sensitivity score (DLD1 NRF2-WT [6])	drug sensitivity score (DLD1 NRF2-GOF [7])	drug sensitivity score (DLD1 NRF2-WT [8])
CC(C)C[C@H](NC(=O)[C@@H](COC(C)(C)C)NC(=O)[C@H](Cc1ccc(O)cc1)NC(=O)[C@H](CO)NC(=O)[C@H](Cc1c[nH]c2ccccc12)NC(=O)[C@H](Cc1cnc[nH]1)NC(=O)[C@@H]1CCC(=O)N1)C(=O)N[C@@H](CCCNC(=N)N)C(=O)N1CCC[C@H]1C(=O)NNC(N)=O [Goserelin]	> 10000	–	> 10000	> 10000	0	0	0	4.5
Nc1cc(F)ccc1NC(=O)/C=C/c1cnn(C/C=C/c2ccccc2)c1 [RGFP966]	1070	–	> 10000	> 10000	0	0	3.7	3.9
CCN(CC)CCOc1ccc(/C(=C(/Cl)c2ccccc2)c2ccccc2)cc1 [Clomifene]	1840	3080	–	–	–	–	7.8	5.4
Cn1ncnc1[C@H]1c2n[nH]c(=O)c3cc(F)cc(c23)N[C@@H]1c1ccc(F)cc1 [Talazoparib]	> 1000	–	> 1000	> 1000	0	0	2.4	5.6
Clc1ccc(Nc2nnc(Cc3ccncc3)c3ccccc23)cc1 [Vatalanib]	> 10000	> 10000	–	–	–	–	0	0
Cc1ccc(C(=O)Nc2ccc(CN3CCN(C)CC3)c(C(F)(F)F)c2)cc1C#Cc1cnc2cccnn12 [Ponatinib]	114	226	–	–	–	–	6	4
CC1CCC(n2c3cnccc3c3cnc(Nc4ccc5c(n4)CCN(C(=O)CO)C5)nc32)CC1 (configuration not stated) [AMG-925]	> 1000	99.7	–	–	–	–	0.5	3.2
COc1ccc(S(=O)(=O)Nc2cccnc2Nc2ccc(O)cc2)cc1 [ABT-751]	301	269	1070	–	3.6	2.1	14.4	15.3
CNC(=O)c1cc(Oc2ccc(NC(=O)Nc3ccc(Cl)c(C(F)(F)F)c3)cc2)ccn1 [Sorafenib]	87.1	–	> 1000	> 1000	0	0	3.3	1.2
Cc1nc(Nc2n[nH]c3c2CN(C(=O)N[C@H](CN(C)C)c2ccccc2)C3(C)C)c2sccc2n1	21.5	21	> 10000	–	1.8	2.1	27.5	28.2
CC(=O)O[C@@]12CO[C@@H]1C[C@H](O)[C@@]1(C)C(=O)[C@H](O)C3=C(C)[C@@H](OC(=O)[C@H](O)[C@@H](NC(=O)OC(C)(C)C)c4ccccc4)C[C@@](O)([C@@H](OC(=O)c4ccccc4)[C@H]21)C3(C)C [Docetaxel]	2.1	3.4	–	–	6.6	6.8	26.6	25.2
CC(C)C(=O)Nc1ccc([N+](=O)[O-])c(C(F)(F)F)c1 [Flutamide]	796	–	> 10000	> 10000	0	0	4.6	0.9
Cc1nc(NC(=O)N2CCC[C@H]2C(N)=O)sc1-c1ccnc(C(C)(C)C(F)(F)F)c1 [Alpelisib]	> 2500	–	> 2500	> 2500	0	0	0.3	2.4
O=C(NOC[C@H](O)CO)c1ccc(F)c(F)c1Nc1ccc(I)cc1F	> 1000	–	> 1000	> 1000	0	0	0.1	2
CCc1c2c(nc3ccc(O)cc13)-c1cc3c(c(=O)n1C2)COC(=O)[C@]3(O)CC [SN-38]	158	337	–	1670	2	2.3	17.5	12.7
CN1CCN(c2ccc3nc(-c4c(N)c5c(F)cccc5[nH]c4=O)[nH]c3c2)CC1 [Dovitinib]	> 10000	> 10000	–	–	–	–	0	1.6
CS(=O)(=O)CCNCc1ccc(-c2ccc3ncnc(Nc4ccc(OCc5cccc(F)c5)c(Cl)c4)c3c2)o1 [Lapatinib]	28.3	–	> 1000	> 1000	0	0	4.4	2.8
Cc1cc(Nc2cc(N3CCN(C)CC3)nc(/C=C/c3ccccc3)n2)n[nH]1 [ENMD-2076]	638	576	–	> 10000	4.4	1.4	11.3	11.4
Cn1cc(-c2[nH]c3cc(NC(=O)[C@H](N)C4CCCCC4)cc4c3c2C=NNC4=O)cn1	812	878	–	> 10000	2.7	1	8.8	9
COc1cccc2c1C(=O)c1c(O)c3c(c(O)c1C2=O)C[C@@](O)(C(C)=O)C[C@@H]3O[C@H]1C[C@H](N)[C@H](O)[C@H](C)O1 [Daunorubicin]	165	156	–	–	–	–	7.2	8.3
